# Data from patent publication US11395798B2, “O/W type emulsion” (NOF CORPORATION, priority 2015, dated 2022).
# Entries after “also recorded” stand apart in the source; their conditions may differ.
# Key:
# [1] = retentivity in blood test, 4 MU-Pal versus 4 MU-CHEMS; assay type: in vivo; settings: B-2:DOPC:Chol emulsion, tail vein, ICR mouse; comparison with 4 MU-Pal
# Procedure: To a lipid mixture of B-2:DOPC:Chol=3:4:3 were added DSG-PEG2000 (9 mol %) and 30 mol % 4 MU-Pal, and 1 mol % fluorescent dye DiD was added to give an emulsion by a method similar to that in Example 1.
# To a lipid mixture of B-2:DOPC:Chol:4 MU-CHEMS=3:4:1.5:1.5 was added DSG-PEG2000 (15 mol %), fluorescent dye DiD (1 mol %) was further added, and an emulsion was prepared by a method similar to that in Example 1.
# The concentration of the particle suspension was set to 4 mM as a lipid concentration (B-2+DOPC+Chol). The suspension (250 μL) was administered to ICR mouse J 4-week-old from the tail vein. Blood (25 μL) was collected at each time point and mixed with pH 10.4 borate buffer (275 μL), ethanol (150 μL), 10% SDS (50 μL). 4 MU-Pal or 4 MU-CHEMS was hydrolyzed by incubation at 60° C. for 30 min. The fluorescence of the resulting 4-methylumbelliferone, and DiD modified by particles was each measured by a plate reader and the residual amount in the blood was examined from the analytical curve.
# [2] = particle size distribution by dynamic light scattering (Zetasizer Nano ZS); assay type: physicochemical
# Procedure: The particle size distribution of the prepared emulsion was measured by dynamic light scattering using Zetasizer Nano ZS. The measurement conditions were 1 mM emulsion (40 μL) at 25° C. As a result, in all compositions, the volume median diameter was not more than 100 nm and, when a linear head was used (i.e., the formula (I) wherein X^a and X^b are each X^1), the particle size was not more than 50 nm. The drug recovery rate was not less than 85% (FIG. 1, Table 2).
# EPC and Cholesterol were mixed to achieve 1000 nmol and a PEG lipid was added. Chloroform in an amount equal to that of the lipid ethanol solution was added and the mixture was dried under a nitrogen blow. PBS (1 mL) was added to the lipid membrane after drying and the mixture was stood for 10 min and sonicated by a bath-type sonicator for 3 min to give a particle suspension. The particle size distribution of the prepared particles was measured by dynamic light scattering in the same manner as in Example 1.
# The particle size distribution of the produced emulsion solution was measured by dynamic light scattering similarly to Example 1. As a result, when DOPC was used, the volume median diameter was near 40 nm irrespective of pH.
# An ethanol solution containing 500 nmol as a total of cationic B-2, DOPE, and Cholesterol was prepared, and a PEG lipid was added in the above-mentioned amount. Ethanol was added to make the total amount 200 μL, and the mixture was stood at ice temperature for 15 min. A similarly ice-cooled malic acid buffer (20 mM, pH 3.0, 0-1000 mM NaCl) (200 μL) was mixed within 3 sec under vortex. PBS (NISSUI) (3600 μL) was immediately added thereto. The mixture was subjected to ultrafiltration using Amicon Ultra (Millipore). The centrifugation conditions were 1000 G, 25° C. An operation including addition of 3200 μL of PBS after centrifugation for 10 min was repeated twice and the sample was concentrated to about 500 μL. The concentrate was diluted with PBS to a mass of 1000 mg to give a 0.5 mM (lipid concentration) emulsion. The particle size distribution of the produced emulsion solution was measured by dynamic light scattering similarly to Example 1.
# The volume median diameter and the surface potential were measured using the dynamic light scattering (Zetasizer Nano; Malvern) in the same manner as in Example 1.
# The average particle size of the produced particles was measured in the same manner as in Example 1 and the results are shown in Table 7.
# [3] = organ accumulation of particles in 4T1 tumor-bearing mouse (IVIS); assay type: in vivo, BALB/c mouse; settings: intravenous, lipid 800 nmol, 24 hr after administration, DiR fluorescence
# Procedure: As cationic lipid, B-2 and B-2-5 were used. As conventional lipid, DODAP and EPC were used. The preparation methods of the O/W type emulsion and particle suspensions (DODAP, EPC) followed the methods described in Example 1 and Comparative Example 1. To visualize pharmacokinetics of the oil droplets constituting the O/W type emulsion or particle suspension (DODAP, EPC), fluorescent dye DiR was added by 0.2 mol % of the lipid. The particle concentration was adjusted to 4 mM as a lipid concentration.
# As a tumor-bearing mouse, 4T1 cell (mouse breast cancer) was used. 1×10^6 4T1 cells were subcutaneously transplanted to the right flank of BALB/c mouse (♀, 4-week-old). At 7 days from the transplantation, 200 μL (lipid 800 nmol) of the O/W type emulsion or particle suspension (DODAP, EPC) containing fluorescence-modified particles was intravenously administered. At 24 hr after administration, […] was performed, and the spleen, liver and tumor were collected and image was obtained by IVIS. The average fluorescence intensity was calculated using Living Image Software.
# As a cationic lipid, B-2 was used. An O/W type emulsion was prepared according to Example 3. In this preparation, 4-Methylumbelliferon (10 mol %) was used as a model drug and DMG-PEG2000 (10 mol %) and DSG-PEG2000 (2.5 mol %) were used as PEG lipids, and a 4.0 mM (based on lipid concentration) emulsion was prepared. To visualize pharmacokinetics of the oil droplets constituting the O/W type emulsion or particle suspension (DODAP, EPC), fluorescent dye DiR was added by 0.2 mol % of the lipid. As the salt (NaCl) concentration during preparation of particles, 30 mM, 150 mM, 750 mM were selected and taken as “Small”, “Medium”, “Large”, respectively. The particle concentration was adjusted to 4 mM as a lipid concentration.
# The organ distribution in a tumor-bearing mouse was evaluated in the same manner as in Experimental Example 1. As a result, accumulation in the spleen, liver decreased as the particle size became smaller.
# [4] = DexPal-carrying rate by high performance liquid chromatography; assay type: physicochemical; settings: DexPal-carrying LNP
# Procedure: 1 mM DexPal-carrying LNP (50 μL) was mixed with phosphate buffer (pH 7.4) (50 μL), and 50 μL thereof was mixed with MeOH (50 μL). 0.1% Trifluoroacetic acid/acetonitrile (400 μL) was added, and DexPal was detected by high performance liquid chromatography (column: InertSustain C18, 5 μm, 4.6 mm×250 mm (GL Sciences Inc.), mobile phase: MeOH:0.1% trifluoroacetic acid/acetonitrile=70:30, flow rate: 1 mL/min, detector: 240 nm, injection volume: 200 μL). As the analytical curve of Dex-Pal, 0.5 mM, 0.25 mM, 0.125 mM, 0.0625 mM, DexPalethanol solution (50 μL) was mixed with MeOH (50 μL), and 50 μL thereof was mixed with phosphate buffer (pH 7.4) (50 μL). 0.1% Trifluoroacetic acid/acetonitrile (400 μL) was added, and DexPal was detected by a method similar to that for DexPal-carrying LNP. The peak area and concentration were plotted, and the DexPal concentration and carrying rate in the DexPal-carrying LNP were calculated.
# [5] = drug release and reduction responsibility test (dialysis, with or without 10 mM glutathione); assay type: physicochemical
# Procedure: Using B-2, B-2-5, O-C3M, B-2-3, TS-P4C2 or L-PZ4C2 as a cationic lipid, an O/W type emulsion having a composition of cationic lipid:DOPC:Cholesterol=3:4:3 (molar ratio) was prepared. In this preparation, DSG-PEG2000 (9 mol %) was used as a PEG lipid. As a drug model molecule, 4-Methylumbelliferon Palmitate (30 mol %) was used and fluorescent probe DiD (1 mol %) was used for calibration by particles concentration.
# An ethanol solution containing 1000 nmol as a total of cationic lipid, DOPE, and Cholesterol was prepared, and PEG lipid, drug model molecule and fluorescent probe were added in the above-mentioned amounts. Ethanol was added to make the total amount 400 μL, and the mixture was stood at 37° C. for 15 min. A similarly heated malic acid buffer (20 mM, pH 3.0, 30 mM NaCl) (400 μL) was mixed within 3 sec under vortex. PBS (NISSUI) (3200 μL) was immediately added thereto. The mixture was subjected to ultrafiltration using Amicon Ultra (Millipore) The centrifugation conditions were 1000 g, 25° C. […]
# 400 μL of the prepared emulsion was placed in a dialysis membrane (Spectrum Lab) having a molecular weight cutoff of 1000 and dialyzed against 40 mL of PBS at 37° C. […] After penetration and stirring at 60° C. for 30 min, the amounts of 4MU and DiD in the solution were quantified by fluorescence measurement (4MU: Ex385, Em450 DiD: Ex645, Em665). […]
# [6] = O/W emulsion cationic lipid:DOPE:Cholesterol=3:4:3, 4-Methylumbelliferon 10 mol %, DMG-PEG2000 10 mol %, DSG-PEG2000 2.5 mol %
# [7] = O/W emulsion cationic lipid:DOPE:Cholesterol=3:4:3, 4-Methylumbelliferon 10 mol %, DMG-PEG2000 10 mol %, DSG-PEG2000 2.5 mol %, 1 mM, 25° C.
# [8] = DexPal-carrying particles (lipid, DOPC, Chol, DMG-PEG2000, DSG-PEG2000, DexPal)
Compound,"PdI [2, 6]","volume median diameter [2, 7] [nm]",PdI ([2]; DexPal-carrying particles),"volume median diameter [2, 8] [nm·days]",transfer into tumor [3],carrying rate [4] [%],other results
"Cc1cc(=O)oc2cc(OC(=O)CCC(=O)OC3CCC4(C)C(=CCC5C4CCC4(C)C(C(C)CCCC(C)C)CCC54)C3)ccc12 (stereo not drawn) [4 MU-CHEMS, 4-methylumbelliferone cholesterol hemisuccinate]",–,–,–,–,–,–,retentivity in blood [1]: stayed longer in the blood than 4 MU-Pal
CCCCCCCC/C=C\CCCCCCCC(=O)OCC(CN(C)C)OC(=O)CCCCCCC/C=C\CCCCCCCC (stereo not drawn) [DODAP],–,–,0.15 ± 0.01,39.1 ± 2.2,transfer well into tumor,89.6 ± 2.9,"PdI ([2]; particle suspension of conventional lipid (DODAP:DOPE:Cholesterol=3:4:3 or EPC:Cholesterol=3:2)): 0.418; volume median diameter ([2]; particle suspension of conventional lipid (DODAP:DOPE:Cholesterol=3:4:3 or EPC:Cholesterol=3:2), 4-Methylumbelliferon 10 mol %): 34.8 nm; release of drug model substance ([5]; conventional lipid particle suspension, 24 hr, under any conditions (reduction or nonreduction)): hardly released; responsiveness under reduction ([5]; conventional lipid:DOPC:Cholesterol=3:4:3 particle suspension, 4-Methylumbelliferon Palmitate 30 mol %): not found"

# Further lines, with some results ahead:
"PdI [2, 6]","volume median diameter [2, 7] [nm]",PdI ([2]; DexPal-carrying particles),"volume median diameter [2, 8] [nm·days]",transfer into tumor [3],carrying rate [4] [%],Compound,other results
0.164,41.2,–,–,–,–,Cc1c(C)c2c(c(C)c1OC(=O)CCC(=O)OCCCN(C)CCSSCCN(C)CCCOC(=O)CCC(=O)Oc1c(C)c(C)c3c(c1C)CCC(C)(CCCC(C)CCCC(C)CCCC(C)C)O3)CCC(C)(CCCC(C)CCCC(C)CCCC(C)C)O2 (stereo not drawn) [B-2-5],accumulation in the liver [3]: superior in accumulation in the liver; also recorded: found
0.465,37.6,0.15 ± 0.01,41.4 ± 0.7,transfer well into tumor,90.6 ± 5.2,CCCCCCCCCCCCCC(=O)OCCCN(C)CCSSCCN(C)CCCOC(=O)CCCCCCCCCCCCC [B-2],"volume median diameter ([2]; B-2:DOPE:Cholesterol=3:4:3, 15 mol % DMG-PEG2000, NaCl concentration of 60 mM or below at preparation): 30-50 nm; volume median diameter ([2]; B-2:DOPE:Cholesterol=3:4:3, 15 mol % DMG-PEG2000, salt concentration of 500 mM or below at preparation): ≤ 100 nm"
0.228,38.4,–,–,–,–,CCCCCCCC/C=C\CCCCCCCC(=O)OCCCN(C)CCSSCCN(C)CCCOC(=O)CCCCCCC/C=C\CCCCCCCC [O-C3M],–
0.063,87.9,–,–,–,–,Cc1c(C)c2c(c(C)c1OC(=O)CCC(=O)OCCC1CCN(CCSSCCN3CCC(CCOC(=O)CCC(=O)Oc4c(C)c(C)c5c(c4C)CCC(C)(CCCC(C)CCCC(C)CCCC(C)C)O5)CC3)CC1)CCC(C)(CCCC(C)CCCC(C)CCCC(C)C)O2 (stereo not drawn) [TS-P4C2],–
